# PMC11124413, “Synthesis, Antibacterial Effects, and Toxicity of Licochalcone C” (Pharmaceuticals, 2024)
# pIC50: −log10 of the molar value. Several values for one entry are separate records, joined by “and”; a condition that tells them apart may be missing. Equal entries are not always repeated. Where two headings read alike, the source gives them in different places. Positions of bridges follow the written chain, without caps; N, C: chain ends. Non-standard residues stand in square brackets, D forms with d. No end group written: not given here. Abu = CC[C@H](N)C(=O)O; Dhb = C/C=C(\N)C(=O)O; Dha = C=C(N)C(=O)O
# Key:
# Gram-negative strains = tested on: Gram-negative strains; set-up: method as in PMID 20160051; conditions: without efflux pump inhibitor (EPI); cited from earlier work
# [1] = tested on: Staphylococcus aureus (ATCC 29213) membrane; experiment: Membrane disruption assay, fluorescence microscopy with SYTO9 and propidium iodide; conditions: S. aureus; LCC at MIC 12.5 µg/mL, 15 min; nisin positive control
# Procedure: Two fluorescent dyes propidium iodide (PI) and SYTO9 were added, which stain cells with disrupted membranes (in pink) and whole membranes (in blue).
# The assay was performed using Staphylococcus aureus (ATCC 29213), an MSSA strain. Bacterial cells were cultivated in solid TSA broth (tryptone soya) at 36 °C and stirred at 200 rpm. […] Cells were stained with the Live/Dead BacLight Kit (Thermo-Scientific® L7012, Carlsbad, CA, USA), which is composed of two nucleic acid dyes: SYTO9, which stains all cells, and propidium iodide, which penetrates cells with damaged membranes [60]. The stained cells were immobilized on agarose-covered slides as described by Martins [61]. Untreated S. aureus cells with intact membranes were used as negative controls, and S. aureus cells exposed to nisin (Sigma-Aldrich® N5764, St. Louis, MO, USA) were used as positive controls for membrane damage [62]. Microscopic analyses were carried out using an Olympus BX-61 microscope, equipped with a monochromatic OrcaFlash-2.8 camera (Hamamatsu, Japan), and the software CellSens Dimension Version 11 (Olympus).
# MSSA (ATCC 6538) = experiment: MIC, broth microdilution with resazurin; type: cell-based; conditions: Staphylococcus aureus (MSSA), mean of triplicates
# MRSA (ATCC BAA44) = experiment: MIC, broth microdilution with resazurin; type: cell-based; conditions: Staphylococcus aureus (MRSA), mean of triplicates
# [2] = tested on: S. epidermidis (ATCC 14990); experiment: MIC, broth microdilution with resazurin; type: cell-based; conditions: ATCC14990; Staphylococcus epidermidis; mean of triplicates
# E. faecalis (ATCC 1299) = experiment: MIC, broth microdilution with resazurin; type: cell-based; conditions: ATCC1299; Enterococcus faecalis; mean of triplicates
# [3] = tested on: S. pneumoniae (ATCC 6305); experiment: MIC, broth microdilution with resazurin; type: cell-based; conditions: ATCC6305; Streptococcus pneumoniae; mean of triplicates
# [4] = tested on: S. sanguinis (ATCC 10556); experiment: MIC, broth microdilution with resazurin; type: cell-based; conditions: ATCC10556; Streptococcus sanguinis; mean of triplicates
# S. sobrinus (ATCC 33478) = experiment: MIC, broth microdilution with resazurin; type: cell-based; conditions: ATCC33478; Streptococcus sobrinus; mean of triplicates
# S. mutans (ATCC 25175) = experiment: MIC, broth microdilution with resazurin; type: cell-based; conditions: ATCC25175; Streptococcus mutans; mean of triplicates
# [5] = tested on: M. tuberculosis (ATCC 27294); experiment: Antimycobacterial MIC, resazurin microtiter assay; type: cell-based; conditions: ATCC27294; Mycobacterium tuberculosis; mean of triplicates
# M. avium (ATCC 25291) = experiment: Antimycobacterial MIC, resazurin microtiter assay; type: cell-based; conditions: ATCC25291; Mycobacterium avium; mean of triplicates
# M. kansasii (ATCC 12478) = experiment: Antimycobacterial MIC, resazurin microtiter assay; type: cell-based; conditions: ATCC12478; Mycobacterium kansasii; mean of triplicates
# H. pylori (ATCC 43526) = experiment: MIC, broth microdilution with resazurin; type: cell-based; conditions: Helicobacter pylori, mean of triplicates
# [6] = tested on: P. aeruginosa (ATCC 27853); experiment: MIC, broth microdilution with resazurin; type: cell-based; conditions: Pseudomonas aeruginosa, mean of triplicates
# [7] = tested on: K. pneumoniae (ATCC 23883); experiment: MIC, broth microdilution with resazurin; type: cell-based; conditions: Klebsiella pneumoniae, mean of triplicates
# [8] = tested on: Escherichia coli (ATCC 25922); experiment: MIC, broth microdilution with resazurin; type: cell-based
# Gram-positive bacteria = experiment: MIC, panel of Gram-positive bacteria; type: cell-based; conditions: all Gram-positive bacteria tested
# MRSA planktonic cells = experiment: Checkerboard assay; type: cell-based, S. aureus; conditions: for MIC: Staphylococcus aureus, read-out: MIC Alone; for MIC Combined: in combination LCC + VAN
# Procedure: (§1) The combinations of LCC with tetracycline and vancomycin were evaluated against MSSA and MRSA, respectively, using a microdilution broth checkerboard assay, according to White and collaborators, adapted with the standard procedure established by the CLSI [51, 54]. The fractional inhibitory concentration (FIC) of the combination between LCC and tetracycline or vancomycin was determined using Mueller–Hinton broth culture medium into 96-well plates, with a final inoculum suspension of 5.0 × 10^5 CFU/mL, incubated at 37 °C for 24 h. After incubation, an aqueous resazurin solution (0.02%) was added to the wells and the FIC values (ratio between the MIC of the drug in combination and the MIC of the drug alone) were determined for each drug (Equations (1) and (2)). The fractional inhibitory concentration index (FICI) was calculated using Equation (3). (1) FICLCC=MIC of drug A in combination/MIC of drug A alone (2) FICD=MIC of drug B in combination/MIC of drug B alone FIC Index (FICI) = FICLCC + FICD(3)
# (§2) The combination was classified as synergistic (FICI ≤ 0.5), indifferent (0.5 < FICI < 4), and antagonistic (FICI ≥ 4). The assays were performed in triplicate in independent experiments.
# MSSA planktonic cells = experiment: Checkerboard assay; type: cell-based, S. aureus
# Procedure: as §1, §2
# MSSA biofilm = experiment: Antibiofilm assay (biofilm formation); type: cell-based, S. aureus
# MRSA biofilm = experiment: Antibiofilm assay (biofilm formation); type: cell-based, S. aureus; conditions: for MBIC50 (minimum biofilm inhibitory concentration): MRSA biofilm formation
# [9] = tested on: Galleria mellonella larvae; experiment: Systemic toxicity in Galleria mellonella larvae; type: in vivo
# Procedure: The systemic toxicity assay was performed to evaluate the acute toxic effects of LCC, following the procedures described by Megaw [63]. For the experiment, 10 healthy larvae from G. mellonella were randomly selected for each concentration test, with a weight range between 0.2 g and 0.3 g and without melanization aspects. The larvae were chilled on ice for 20 min and had their prolegs cleaned with 70% ethanol. […] Five microliters of the solution were injected into the hemocoel of each larva through the last left proleg using a 25 µL Hamilton syringe. After the administration, the larvae were incubated at 37 °C and their survival was monitored in selected intervals over 72 h. The larvae unable to move when touched and showing elevated levels of melanization were counted as dead. Experiments were performed in triplicate.
# NADH-oxidase = target: NADH-oxidase; set-up: method as in PMID 9621457; conditions: cited from earlier work
# [10] = target: NADH-cytochrome c reductase; set-up: method as in PMID 9621457; conditions: cited from earlier work
# NADH-CoQ reductase = target: NADH-CoQ reductase; set-up: method as in PMID 9621457; conditions: cited from earlier work
# NADH-FMN oxidoreductase = target: NADH-FMN oxidoreductase; set-up: method as in PMID 9621457; conditions: cited from earlier work
# [11] = tested on: E. coli respiratory chain; set-up: method as in PMID 9621457; conditions: cited from earlier work
# T24 (bladder) = tested on: T24 (bladder); set-up: method as in PMID 26397392; conditions: at 45 µg/mL; cited from earlier work
# MCF7 (breast) = tested on: MCF7 (breast); set-up: method as in PMID 26397392; conditions: at 45 µg/mL; cited from earlier work
# A549 (lung) = tested on: A549 (lung); set-up: method as in PMID 26397392; conditions: at 45 µg/mL; cited from earlier work
# HCT116 (colorectal) = tested on: HCT116 (colorectal); set-up: method as in PMID 38148556; conditions: read-out: IC50 (proliferation); cited from earlier work
# HepG2 (liver) = tested on: HepG2 (liver); set-up: method as in PMID 32578448; conditions: read-out: IC50 (proliferation); cited from earlier work
# HN22 (oral) = tested on: HN22 (oral); set-up: method as in PMID 30129052; conditions: read-out: IC50 (proliferation); cited from earlier work
# HSC4 (oral) = tested on: HSC4 (oral); set-up: method as in PMID 30129052; conditions: read-out: IC50 (proliferation); cited from earlier work
# KYSE 30 (esophageal) = tested on: KYSE 30 (esophageal); set-up: method as in PMID 32009586; conditions: read-out: IC50 (proliferation); cited from earlier work
# KYSE 70 (esophageal) = tested on: KYSE 70 (esophageal); set-up: method as in PMID 32009586; conditions: read-out: IC50 (proliferation); cited from earlier work
# KYSE 410 (esophageal) = tested on: KYSE 410 (esophageal); set-up: method as in PMID 32009586; conditions: read-out: IC50 (proliferation); cited from earlier work
# KYSE 450 (esophageal) = tested on: KYSE 450 (esophageal); set-up: method as in PMID 32009586; conditions: read-out: IC50 (proliferation); cited from earlier work
# KYSE 510 (esophageal) = tested on: KYSE 510 (esophageal); set-up: method as in PMID 32009586; conditions: read-out: IC50 (proliferation); cited from earlier work
# Vero cells = tested on: Vero cells; set-up: method as in PMID 31749783; conditions: cited from earlier work
compound,measurement,setting,value
"CC(C)=CCc1c(O)ccc(C(=O)/C=C/c2ccc(O)cc2)c1O [IBC, isobavachalcone]",antibacterial activity,Gram-negative strains,weakly active
"nisin (I[Dhb]AI[Dha]LC[Abu]PGCK[Abu]GALMGCNMK[Abu]A[Abu]CHCSIHV[Dha]K; thioether 8-11, 13-19, 23-26, 25-28, 3-7; UniProt P13068 24-57, looked up) [reference compound]",percentage of cells with permeabilized membrane (stained with both fluorophores),[1],95%
"COc1c(/C=C/C(=O)c2ccc(O)cc2)ccc(O)c1CC=C(C)C [LCC, licochalcone C]",MIC,MSSA (ATCC 6538),12.5 µg/mL
same,MIC,MSSA (ATCC 6538); read-out: MIC,12.5 µg/mL
same,MIC,MRSA (ATCC BAA44),12.5 µg/mL
same,MIC,MRSA (ATCC BAA44); read-out: MIC,12.5 µg/mL
same,MIC,[2],6.2 µg/mL
same,MIC,E. faecalis (ATCC 1299),50 µg/mL
same,MIC,[3],50 µg/mL
same,MIC,[4],6.2 µg/mL
same,MIC,S. sobrinus (ATCC 33478),12.5 µg/mL
same,MIC,S. mutans (ATCC 25175),12.5 µg/mL
same,MIC,[5],31.2 µg/mL
same,MIC,M. avium (ATCC 25291),62.5 µg/mL
same,MIC,M. kansasii (ATCC 12478),125 µg/mL
same,MIC,"H. pylori (ATCC 43526); ATCC43526, read-out: MIC",25 µg/mL
same,MIC,H. pylori (ATCC 43526),25 µg/mL
same,MIC,"[6]; ATCC27853, read-out: MIC",> 400 µg/mL
same,MIC,[6],>400 µg/mL
same,MIC,"[7]; ATCC23883, read-out: MIC",> 400 µg/mL
same,MIC,[7],>400 µg/mL
same,MIC,"[8]; ATCC25922, mean of triplicates, read-out: MIC",> 400 µg/mL
same,MIC,[8]; mean of triplicates,>400 µg/mL
same,"MIC, range over Gram-positive bacteria",Gram-positive bacteria,6.2 to 50.0 µg/mL
same,MIC,"MRSA planktonic cells; checkerboard, drug alone",12.5 µg/mL
same,MIC Combined,MRSA planktonic cells; checkerboard,6.25 µg/mL
same,FICLCC (fractional inhibitory concentration for LCC),MRSA planktonic cells; combination LCC + VAN,0.5
same,MIC,"MSSA planktonic cells; Staphylococcus aureus, checkerboard, drug alone",12.5 µg/mL
same,MIC Combined,"MSSA planktonic cells; checkerboard, in combination LCC + TC",3.12 µg/mL
same,FICLCC (fractional inhibitory concentration for LCC),MSSA planktonic cells; combination LCC + TC,0.25
same,inhibition of biofilm formation,MSSA biofilm,75%
same,MBIC50 (minimum biofilm inhibitory concentration),MSSA biofilm; MSSA biofilm formation,6.25 µg/mL
same,MBIC50 (minimum biofilm inhibitory concentration),MRSA biofilm,6.25 µg/mL
same,inhibition of biofilm formation,"MRSA biofilm; MRSA, at MBIC50 (6.25 μg/mL)",87%
same,lethality to larvae,[9]; 100 µg/mL after 80 h treatment,not lethal
same,larvae survival,"[9]; LCC at 12.5, 25, 50, and 100 µg/mL, over a period of 72 h",100%
same,pIC50,NADH-oxidase,5.52
same,pIC50,[10],4.53
same,pIC50,NADH-CoQ reductase,< 4.00
same,pIC50,NADH-FMN oxidoreductase,< 4.00
same,inhibition of respiratory chain,[11],did not inhibit
same,proliferation inhibition,T24 (bladder),68%
same,proliferation inhibition,MCF7 (breast),47%
same,proliferation inhibition,A549 (lung),40%
same,pIC50,HCT116 (colorectal),4.78
same,pIC50,HepG2 (liver),4.29
same,pIC50,HN22 (oral),4.62
same,pIC50,HSC4 (oral),4.57
same,pIC50,KYSE 30 (esophageal),4.55
same,pIC50,KYSE 70 (esophageal),4.44
same,pIC50,KYSE 410 (esophageal),4.72
same,pIC50,KYSE 450 (esophageal),4.55
same,pIC50,KYSE 510 (esophageal),4.59
same,IC50,Vero cells,27.7 µg/mL
same,percentage of cells with permeabilized membrane (stained with both fluorophores),[1],75%
"CN[C@H](CC(C)C)C(=O)N[C@H]1C(=O)N[C@@H](CC(N)=O)C(=O)N[C@H]2C(=O)N[C@H]3C(=O)N[C@H](C(=O)N[C@H](C(=O)O)c4cc(O)cc(O)c4-c4cc3ccc4O)[C@H](O)c3ccc(c(Cl)c3)Oc3cc2cc(c3O[C@@H]2O[C@H](CO)[C@@H](O)[C@H](O)[C@H]2O[C@H]2C[C@](C)(N)[C@H](O)[C@H](C)O2)Oc2ccc(cc2Cl)[C@H]1O [Vancomycin, vancomycin, reference compound]",MIC,MRSA (ATCC BAA44); read-out: MIC,0.73 µg/mL
same,MIC,MRSA planktonic cells,0.73 µg/mL
same,MIC Combined,MRSA planktonic cells; checkerboard,0.36 µg/mL
same,FICD (fractional inhibitory concentration for the associated drug),MRSA planktonic cells; combination LCC + VAN,0.5
same,MBIC50 (minimum biofilm inhibitory concentration),MRSA biofilm,0.737 µg/mL and 0.7375 µg/mL
